Source: patent EP1069130A1, “Moenomycin A Derivatives, their preparation, and use as antibacterial products” (HOECHST MARION ROUSSEL, priority 1999, dated 2001)

Tested on: S. pyogenes A561
Test: Method of dilutions in liquid medium (minimum inhibiting concentration)
Assay type: cell-based
Settings: liquid nutritive medium, incubation twenty-four hours at 37° C, growth inhibition read by transillumination; for MIC: Streptococcus pyogenes, 24 h, read-out: minimum inhibiting concentrations (M.I.C.)
Description: Method of dilutions in liquid medium.
A series of tubes were prepared in which the same amount of sterile nutritive medium was distributed and increasing amounts of the product to be studied was distributed in each tube. Then, each tube was seeded with a bacterial strain and after incubationg for twenty-four hours in an oven at 37° C, the inhibition of growth was determined by transillumination which allowed the minimum inhibiting concentrations (M.I.C.) to be evaluated.
Products were tested on many strains inclusing : • S. aureus SG511 • S. aureus SG511 (+10 % serum) • S. aureus Exp54146 • S. pyogenes A561 • E. faecium M78L

MIC | Compound | minimum inhibiting concentrations (M.I.C.)
≤ 1.2 µg/mL | CCCCCCCCCCCCc1ccc(NCCO[C@H](COP(=O)(O)O[C@H]2O[C@H](C(N)=O)[C@@](C)(O)[C@H](OC(N)=O)[C@H]2O[C@@H]2O[C@H](CO[C@@H]3O[C@H](CO)[C@@H](O)[C@H](O)[C@H]3O)[C@@H](O[C@@H]3O[C@H](C)[C@@H](O[C@@H]4O[C@H](C(N)=O)[C@H](O)[C@H](O)[C@H]4O)[C@H](O)[C@H]3NC(C)=O)[C@H](O)[C@H]2NC(C)=O)C(=O)O)cc1 [Example 5, 3-carbamate 1-[(2R)-2-carboxy-2-[[(4-dodecylphenyl))amino]ethoxy]ethyl hydrogen phosphate] 0-β-D-glucopyranosyl-(1→6)-O-[O-(β-D-galactopyranuronamidosyi)-(1→4)-2-(acetylamino)-2,6-dideoxy-β-D-glucopyranosyl-(1→4]-O-2-(acetylamino)-2-deoxy-.beat.-D-glucopyranosyl-(1→2)-4-C-methyl-α-D-Glucopyranuronamide] | 
 | CC(=O)NC1C(OC2C(COC3OC(CO)C(O)C(O)C3O)OC(OC3C(OP(=O)(O)OCC(OCCNCC=C(C)CCCC(C)CCCC(C)CCCC(C)C)C(=O)O)OC(C(N)=O)C(C)(O)C3OC(N)=O)C(NC(C)=O)C2O)OC(C)C(OC2OC(C(N)=O)C(O)C(O)C2O)C1O [Example 4, 3-carbamate 1-[(2R)-2-carboxy-2-[[(3,7,11,15-tetramethyl-2-hexadecenyl)amino]ethoxy]ethyl hydrogen phosphate] 0-β-D-glucopyranosyl-(1→6)-O-[O-(β-D-galactopyranuronamidosyl)-(1→4)-2-(acetylamino)-2,6-dideoxy-β-D-glucopyranosyl-(1→4]-O-2-(acetylamino)-2-deoxy-.beat.-D-glucopyranosyl-(1→2)-4-C-methyl-α-D-Glucopyranuronamide] | ≤ 1,2 microgramme/ml
≤ 1.2 µg/mL | C=CC(CCCCCCCCC)C(O)CO[C@H](COP(=O)(O)O[C@H]1O[C@H](C(N)=O)[C@@](C)(O)[C@H](OC(N)=O)[C@H]1O[C@@H]1O[C@H](CO[C@@H]2O[C@H](CO)[C@@H](O)[C@H](O)[C@H]2O)[C@@H](O[C@@H]2O[C@H](C)[C@@H](O[C@@H]3O[C@H](C(N)=O)[C@H](O)[C@H](O)[C@H]3O)[C@H](O)[C@H]2NC(C)=O)[C@H](O)[C@H]1NC(C)=O)C(=O)O (stereo partly drawn) [Example 6] | 
